Counter-ions that a name gives are not always drawn. Like-named read-outs stand apart in the source and are kept apart here.
Tests used:
Format in all cases: cell-based, rabbit (Japan white, male)
[1] = tested on: platelet activating factor (PAF)-induced rabbit platelet aggregation in plasma; test: PAF-induced platelet aggregation in rabbit platelet rich plasma
Description: (§1) Method: Nine volumes of blood were drawn from the central ear artery of male rabbit (Japan white, 3 kg) directly into plastic syringe containing 1 volume of 3.8% sodium citrate. The blood was centrifuged at 270×g for 10 minutes at room temperature and the platelet rich plasma (PRP) was removed. The pellet was further centrifuged at 1,100×g for 15 minutes. The supernatant was used as platelet poor plasma (PPP). The platelet concentration was adjusted to 5×10^5 cells/μl with PPP. Platelet aggregation was measured by the method of G. V. R. Born and M. J. Cross [Journal of Physiology, 168, 178-195 (1963)] using a HEMA TRACER (Nikou Bio Science, Japan). Varying concentration of compounds were added to the PRP 2 minutes prior to PAF (10^-8 M). The extent of platelet aggregation was determined by the maximum change of light transmission, assigning the transmission of unstimulated PRP to be 0% and that of PPP to be as 100%. Percent inhibition with compound was calculated by dividing the percent aggregation in the presence of compound by that in the control, and then the IC50 values were calculated.

[2] = tested on: platelet aggregation induced by ADP; test: platelet aggregation induced by ADP; conditions: ADP 3×10^-6 M; data not shown
Description: as §1, with “Varying concentration of compounds were added to the PRP 2 minutes prior to PAF (10^-8 M).” left out

[3] = tested on: platelet aggregation induced by arachidonic acid; test: platelet aggregation induced by arachidonic acid; conditions: arachidonic acid 1×10^-4 M; data not shown
Description: as §1, with “Varying concentration of compounds were added to the PRP 2 minutes prior to PAF (10^-8 M).” left out

[4] = tested on: platelet aggregation induced by collagen; test: platelet aggregation induced by collagen; conditions: collagen 10 μg/ml; data not shown
Description: as §1, with “Varying concentration of compounds were added to the PRP 2 minutes prior to PAF (10^-8 M).” left out

[5] = Oryctolagus cuniculus, Platelet
[6] = Oryctolagus cuniculus, Platelet, Table 1, PAF 10^-8 M, compound added 2 minutes prior to PAF, rabbit PRP, read-out: IC50
[7] = Oryctolagus cuniculus, Platelet, PAF 10^-8 M, compound added 2 minutes prior to PAF, rabbit PRP, read-out: IC50 values

SMILES	IC50 [1, 6]	also measured
O=C(C1CSC(c2cccnc2)N1)N1CCN(CCCc2ccc([N+](=O)[O-])cc2[N+](=O)[O-])CC1 (stereo not drawn) [Example 125]		IC50 [1, 5]: 450 nM
Cc1ccccc1CCCN1CCN(C(=O)C2CSC(c3cccnc3)N2)CC1 (stereo not drawn) [Example 127]	460 nM	
Cc1ncccc1C1NC(C(=O)N2CCN(CCCc3ccccc3)CC2)CS1 (stereo not drawn) [Example 97]	120 nM	
Cl.Cl.Cl.O=C(C1CSC(c2cccnc2)N1)N1CCN(CCCCc2ccccc2)CC1 (stereo not drawn) [Example 49, 1-(4-phenylbutyl)-4-[2-(3-pyridyl)thiazolidin-4-ylcarbonyl]piperazine trihydrochloride]	85 nM	IC50 [1, 7]: 28 to 85 nM; inhibition of platelet aggregation induced by ADP [2]: did not inhibit; inhibition of platelet aggregation induced by arachidonic acid [3]: did not inhibit; inhibition of platelet aggregation induced by collagen [4]: did not inhibit
CCCCc1ccc(CNC(=O)C2CSC(c3cccnc3)N2)cc1 (stereo not drawn) [Example 61]	770 nM	
CCCCCCN1CCN(C(=O)C2CSC(c3cccnc3)N2)CC1 (stereo not drawn) [Example 92]	260 nM	
O=C(C1CSC(c2cccnc2)N1)N1CCC(CCc2ccccc2)CC1 (stereo not drawn) [Example 72]	900 nM	
CCCCCCCCCCN1CCN(C(=O)C2CSC(c3cccnc3)N2)CC1 (stereo not drawn) [Example 81, 1-decyl-4-[2-(3-pyridyl)thiazolidin-4-ylcarbonyl]piperazine trihydrochloride]	28 nM	IC50 [1, 7]: 28 to 85 nM; inhibition of platelet aggregation induced by ADP [2]: did not inhibit; inhibition of platelet aggregation induced by arachidonic acid [3]: did not inhibit; inhibition of platelet aggregation induced by collagen [4]: did not inhibit
O=C(NCc1ccc(OCCCc2ccccc2)cc1)C1CSC(c2cccnc2)N1 (stereo not drawn) [Example 58]	390 nM	
O=C(NC1CCCCC1)C1CSC(c2cccnc2)N1 (stereo not drawn) [Example 34, N-cyclohexyl-2-(3-pyridyl)thiazolidine-4-carboxamide dihydrochloride]		IC50 [1, 5]: 950 nM
CN(Cc1ccccc1)C(=O)C1CSC(c2cccnc2)N1 (stereo not drawn) [Example 22, N-benzyl-N-methyl-2-(3-pyridyl)thiazolidine-4-carboxamide dihydrochloride]	790 nM	
O=C(CN1CCN(C(=O)C2CSC(c3cccnc3)N2)CC1)c1ccccc1 (stereo not drawn) [Example 66]	430 nM	
O=C(C1CSC(c2cccnc2)N1)N1CCC(Cc2ccccc2)CC1 (stereo not drawn) [Example 36, 4-benzyl-1-[2-(3-pyridyl)thiazolidin-4-ylcarbonyl]piperidine dihydrochloride]	860 nM	
Cc1ccc(CNC(=O)C2CSC(c3cccnc3)N2)cc1 (stereo not drawn) [Example 20, N-(p-Methylbenzyl)-2-(3-pyridyl)thiazolidine-4-carboxamide dihydrochloride]	800 nM	
CC(CCN1CCN(C(=O)C2CSC(c3cccnc3)N2)CC1)c1ccccc1 (stereo not drawn) [Example 142]		IC50 [1, 7]: 28 to 85 nM; inhibition of platelet aggregation induced by ADP [2]: did not inhibit; inhibition of platelet aggregation induced by arachidonic acid [3]: did not inhibit; inhibition of platelet aggregation induced by collagen [4]: did not inhibit
Nc1ccc(CCCN2CCN(C(=O)C3CSC(c4cccnc4)N3)CC2)cc1 (stereo not drawn) [Example 126]	180 nM	

SMILES	IC50 [1, 6]	also measured
COc1ccc(CCCN2CCN(C(=O)C3CSC(c4cccnc4)N3)CC2)cc1 (stereo not drawn) [Example 120]	170 nM	
O=C(CCCN1CCN(C(=O)C2CSC(c3cccnc3)N2)CC1)c1ccc(Br)cc1 (stereo not drawn) [Example 67]	71 nM	IC50 [1, 7]: 28 to 85 nM; inhibition of platelet aggregation induced by ADP [2]: did not inhibit; inhibition of platelet aggregation induced by arachidonic acid [3]: did not inhibit; inhibition of platelet aggregation induced by collagen [4]: did not inhibit
O=C(C1CSC(c2cccnc2)N1)N1CCN(CCCc2ccc(Cl)cc2)CC1 (stereo not drawn) [Example 123]	180 nM	
Cc1ccc(CCCN2CCN(C(=O)C3CSC(c4cccnc4)N3)CC2)cc1 (stereo not drawn) [Example 119]	79 nM	IC50 [1, 7]: 28 to 85 nM; inhibition of platelet aggregation induced by ADP [2]: did not inhibit; inhibition of platelet aggregation induced by arachidonic acid [3]: did not inhibit; inhibition of platelet aggregation induced by collagen [4]: did not inhibit
CC(C)CCOc1ccc(CNC(=O)C2CSC(c3cccnc3)N2)cc1 (stereo not drawn) [Example 54, N-[p-(3-methylbutoxy)benzyl]-2-(3-pyridyl)thiazolidine-4-carboxamide dihydrochloride]	240 nM	
O=C(NCc1ccc(OCCCOc2ccccc2)cc1)C1CSC(c2cccnc2)N1 (stereo not drawn) [Example 60]	760 nM	
CC(C)CCCN1CCN(C(=O)C2CSC(c3cccnc3)N2)CC1 (stereo not drawn) [Example 93]	630 nM	
O=C(C1CSC(c2cccnc2)N1)N1CCN(CC=Cc2ccccc2)CC1 (stereo not drawn) [Example 64]	390 nM	
O=C(NNc1ccccc1)C1CSC(c2cccnc2)N1 (stereo not drawn) [Example 50, N'-phenyl-2-(3-pyridyl)thiazolidine-4-carbohydrazide]	800 nM	
CC(C)COc1ccc(CNC(=O)C2CSC(c3cccnc3)N2)cc1 (stereo not drawn) [Example 55]	160 nM	
O=C(C1CSC(c2cccnc2)N1)N1CCN(c2ccccc2)CC1 (stereo not drawn) [Example 32, trihydrochloride]	490 nM	
O=C(C1CSC(c2cccnc2)N1)N1CCC(c2ccccc2)CC1 (stereo not drawn) [Example 46, 4-phenyl-1-[2-(3-pyridyl)thiazolidin-4-ylcarbonyl]piperidine dihydrochloride]	650 nM	
CCCCCCCOc1ccc(CNC(=O)C2CSC(c3cccnc3)N2)cc1 (stereo not drawn) [Example 24, N-(p-Heptyloxybenzyl)-2-(3-pyridyl)thiazolidine-4-carboxamide dihydrochloride]	250 nM	
CCCCCCN1CCN(C(=O)C2CSC(c3cccnc3)N2)CC1 (stereo not drawn) [Example 117]		IC50 ([1]; Table 1, PAF 10^-8 M, compound added 2 minutes prior to PAF, rabbit PRP, read-out: IC50): 260 nM
CCCCCCCN1CCCN(C(=O)C2CSC(c3cccnc3)N2)CC1 (stereo not drawn) [Example 80]	340 nM	

More lines, main results first:

IC50 [1, 6]	SMILES	also measured
67 nM	CCCCCCCCN1CCN(C(=O)C2CSC(c3cccnc3)N2)CC1 (stereo not drawn) [Example 90, 1-octyl-4-[2-(3-pyridyl)thiazolidin-4-ylcarbonyl]piperazine fumarate]	IC50 [1, 7]: 28 to 85 nM; inhibition of platelet aggregation induced by ADP [2]: did not inhibit; inhibition of platelet aggregation induced by arachidonic acid [3]: did not inhibit; inhibition of platelet aggregation induced by collagen [4]: did not inhibit
500 nM	Cc1ccc(CN2CCN(C(=O)C3CSC(c4cccnc4)N3)CC2)cc1 (stereo not drawn) [Example 63]	
430 nM	O=C(NCc1ccc(OCCCCc2ccccc2)cc1)C1CSC(c2cccnc2)N1 (stereo not drawn) [Example 23, N-2-(3-pyridyl)thiazolidine-4-carboxamide dihydrochloride]	
120 nM	O=C(C1CSC(c2cccnc2)N1)N1CCN(CCCOc2ccccc2)CC1 (stereo not drawn) [Example 65]	
72 nM	O=C(C1CSC(c2cccnc2)N1)N1CCN(CCCCCc2ccccc2)CC1 (stereo not drawn) [Example 85]	IC50 [1, 7]: 28 to 85 nM; inhibition of platelet aggregation induced by ADP [2]: did not inhibit; inhibition of platelet aggregation induced by arachidonic acid [3]: did not inhibit; inhibition of platelet aggregation induced by collagen [4]: did not inhibit
210 nM	COc1cc(CNC(=O)C2CSC(c3cccnc3)N2)ccc1OCCCCc1ccccc1 (stereo not drawn) [Example 59]	
200 nM	O=C(NCc1ccc(OCC2CCCC2)cc1)C1CSC(c2cccnc2)N1 (stereo not drawn) [Example 57]	
64 nM	CCCCCCCN1CCN(C(=O)C2CSC(c3cccnc3)N2)CC1 (stereo not drawn) [Example 71]	IC50 [1, 7]: 28 to 85 nM; inhibition of platelet aggregation induced by ADP [2]: did not inhibit; inhibition of platelet aggregation induced by arachidonic acid [3]: did not inhibit; inhibition of platelet aggregation induced by collagen [4]: did not inhibit
120 nM	CC(C)CCCOc1ccc(CNC(=O)C2CSC(c3cccnc3)N2)cc1 (stereo not drawn) [Example 56]	
190 nM	O=C(C1CSC(c2cccnc2)N1)N1CCN(CCCc2ccc(O)cc2)CC1 (stereo not drawn) [Example 121]	
400 nM	CN(Cc1ccc(OCCCc2ccccc2)cc1)C(=O)C1CSC(c2cccnc2)N1 (stereo not drawn) [Example 89]	
220 nM	O=C(C1CSC(c2cccnc2)N1)N1CCN(CCc2ccccc2)CC1 (stereo not drawn) [Example 84]	
900 nM	O=C(C1CSC(c2cccnc2)N1)N1CCCN(Cc2ccccc2)CC1 (stereo not drawn) [Example 76]	
970 nM	N#Cc1ccc(CCCN2CCN(C(=O)C3CSC(c4cccnc4)N3)CC2)cc1 (stereo not drawn) [Example 128]	
450 nM	O=C(C1CSC(c2cccnc2)N1)N1CCN(Cc2ccccc2)CC1 (stereo not drawn) [Example 48, 1-benzyl-4-[2(3-pyridyl)thiazolidin-4-ylcarbonyl]piperazine trihydrochloride]	
180 nM	O=C(C1CSC(c2cccnc2)N1)N1CCN(CCCc2ccc(F)cc2)CC1 (stereo not drawn) [Example 124]	
